Reference: ChEMBL document CHEMBL4619767, “Precursor-Directed Biosynthesis and Fluorescence Labeling of Clickable Microcystins” (J Nat Prod, 2020)
Numbered stars: 1 amine (or outer) side, 2 acyl side, 3 side chain; on linkers, the order of the positions; unused ones are H or OH. Bridge positions count the residues as written; N and C are the ends. Square brackets hold non-standard residues; d marks the D form. Peptide text beside a SMILES is read from it. * marks the point of attachment. Adda = CO[C@@H](Cc1ccccc1)[C@@H](C)/C=C(C)/C=C/[C@H](N[*:1])[C@H](C)C(=O)[*:2]; dAsp(3S-Me) = C[C@H](C(=O)[*:3])[C@@H](N[*:1])C(=O)[*:2]; d(γGlu) = O=C(O)[C@@H](CCC(=O)[*:2])N[*:1]; NMeDha = C=C(NC)C(=O)O; Propargyl = C#CC*

What was measured:
HEK293 [1] = experiment: Cytotoxicity against OATP1B3 (-/-) HEK293 cells incubated for 48 hrs by sulforhodamine B assay; assay type: ADME, cell-based, Homo sapiens
HEK293 [2] = experiment: Cytotoxicity against OATP1B1 (-/-) HEK293 cells incubated for 48 hrs by sulforhodamine B assay; assay type: ADME, cell-based, Homo sapiens
[3] = Drug uptake in OATP1B3 (-/-) HEK293 cells at 100 nM measured up to 8 mins by fluorescence time-lapse microscopy; assay type: ADME, cell-based; details: human, hek293, 8 min, 0.1 µM
[4] = Drug uptake in OATP1B1 (-/-) HEK293 cells at 100 nM measured up to 8 mins by fluorescence time-lapse microscopy; assay type: ADME, cell-based; details: human, hek293, 8 min, 0.1 µM

C=C1C(=O)N[C@H](C)C(=O)N[C@@H](Cc2ccc(OCc3cn(-c4cc5ccc(O)cc5oc4=O)nn3)cc2)C(=O)N[C@@H](C(=O)O)[C@H](C)C(=O)N[C@@H](CCCNC(=N)N)C(=O)N[C@@H](/C=C/C(C)=C/[C@H](C)[C@H](Cc2ccccc2)OC)[C@H](C)C(=O)N[C@@H](C(=O)O)CCC(=O)N1C
EC50 (HEK293 [1]): > 2000 nM
EC50 (HEK293 [2]): > 2000 nM
Drug uptake [3]: Not Active
Drug uptake [4]: Not Active

C#CCOc1ccc(C[C@@H]2NC(=O)[C@@H](C)NC(=O)C(=C)N(C)C(=O)CC[C@H](C(=O)O)NC(=O)[C@@H](C)[C@H](/C=C/C(C)=C/[C@H](C)[C@H](Cc3ccccc3)OC)NC(=O)[C@H](CCCNC(=N)N)NC(=O)[C@@H](C)[C@H](C(=O)O)NC2=O)cc1 (R[Adda][d(γGlu)][NMeDha][dA]Y(Propargyl)[dAsp(3S-Me)]-OH; lactam N-7)
EC50 (HEK293 [1]): > 2000 nM
EC50 (HEK293 [2]): > 2000 nM

C=C1C(=O)N[C@H](C)C(=O)N[C@@H](Cc2ccc(O)cc2)C(=O)N[C@@H](C(=O)O)[C@H](C)C(=O)N[C@@H](CCCNC(=N)N)C(=O)N[C@@H](/C=C/C(C)=C/[C@H](C)[C@H](Cc2ccccc2)OC)[C@H](C)C(=O)N[C@@H](C(=O)O)CCC(=O)N1C (R[Adda][d(γGlu)][NMeDha][dA]Y[dAsp(3S-Me)]-OH; lactam N-7)
EC50 (HEK293 [1]): > 2000 nM
EC50 (HEK293 [2]): > 2000 nM
